# Results as given in ChEMBL document CHEMBL4340507, “Identification of an indol-based multi-target kinase inhibitor through phenotype screening and target fishing using inverse virtual screening approach” (Eur J Med Chem, 2019).
# Tested on: MCF7
# Assay: Antiproliferative activity against human MCF7 cells assessed as decrease in cell viability measured after 72 hrs by MTT assay
# Type: functional, cell-based
# Conditions: MCF7, 72 h
row,IC50,Structure (SMILES)
1,12.2 µM,CCNC(=O)c1ccc2c(c1)c(CN(C)CCc1ccc(-c3ccccc3)cc1)cn2C
2,20.2 µM,CN(Cc1ccc(-c2ccccc2)cc1)Cc1cn(C)c2ccc(CNc3ccc(F)cc3)cc12
3,76.4 µM,Cn1cc(CNCCc2ccc(-c3ccccc3)cc2)c2cc(CNc3ccc(F)cc3)ccc21
4,37 µM,CN(Cc1ccc(Oc2ccccc2)cc1)Cc1cn(C)c2ccc(CNc3ccc(F)cc3)cc12

# Second part, the compound before the results:
row,Structure (SMILES),IC50
1,CN1CCN(Cc2cn(C)c3ccc(C(=O)Nc4ccc(F)cc4)cc23)CC1,24.7 µM
2,O=C(Nc1ccc(F)cc1)c1ccc2c(ccn2Cc2ccc(-c3ccccc3)cc2)c1,10.8 µM
3,CC(=O)N(CCc1ccc(-c2ccccc2)cc1)Cc1cn(C)c2ccc(C(=O)Nc3ccc(F)cc3)cc12,82.6 µM
4,Cc1ccc(NC(=O)c2ccc3c(c2)c(CN(C)CCc2ccc(-c4ccccc4)cc2)cn3C)cc1,3.04 µM
5,Cn1cc(CN2CCN(Cc3ccc(-c4ccccc4)cc3)CC2)c2cc(C(=O)Nc3ccc(F)cc3)ccc21,63.9 µM
6,CN(CCc1ccccc1)Cc1cn(C)c2ccc(C(=O)Nc3ccc(F)cc3)cc12,14.7 µM

# Tested on: HeLa
# Assay: Antiproliferative activity against human HeLa cells assessed as decrease in cell viability measured after 72 hrs by MTT assay
# Type: functional, cell-based
# Conditions: not given
row,IC50,Structure (SMILES)
1,> 100 µM,CCNC(=O)c1ccc2c(c1)c(CN(C)CCc1ccc(-c3ccccc3)cc1)cn2C
2,8.18 µM,CN(Cc1ccc(-c2ccccc2)cc1)Cc1cn(C)c2ccc(CNc3ccc(F)cc3)cc12
3,14.7 µM,Cn1cc(CNCCc2ccc(-c3ccccc3)cc2)c2cc(CNc3ccc(F)cc3)ccc21
4,9.98 µM,CN(Cc1ccc(Oc2ccccc2)cc1)Cc1cn(C)c2ccc(CNc3ccc(F)cc3)cc12

# Further lines, the compound ahead of its results:
row,Structure (SMILES),IC50
1,CN1CCN(Cc2cn(C)c3ccc(C(=O)Nc4ccc(F)cc4)cc23)CC1,24.8 µM
2,O=C(Nc1ccc(F)cc1)c1ccc2c(ccn2Cc2ccc(-c3ccccc3)cc2)c1,67.6 µM
3,CC(=O)N(CCc1ccc(-c2ccccc2)cc1)Cc1cn(C)c2ccc(C(=O)Nc3ccc(F)cc3)cc12,> 100 µM
4,Cc1ccc(NC(=O)c2ccc3c(c2)c(CN(C)CCc2ccc(-c4ccccc4)cc2)cn3C)cc1,69.8 µM
5,Cn1cc(CN2CCN(Cc3ccc(-c4ccccc4)cc3)CC2)c2cc(C(=O)Nc3ccc(F)cc3)ccc21,39.7 µM
6,CN(CCc1ccccc1)Cc1cn(C)c2ccc(C(=O)Nc3ccc(F)cc3)cc12,19.6 µM

# Tested on: PC-3
# Assay: Antiproliferative activity against human PC3 cells assessed as decrease in cell viability measured after 72 hrs by MTT assay
# Type: functional, cell-based
# Conditions: PC-3, 72 h
row,IC50,Structure (SMILES)
1,87.5 µM,CCNC(=O)c1ccc2c(c1)c(CN(C)CCc1ccc(-c3ccccc3)cc1)cn2C
2,84.3 µM,CN(Cc1ccc(-c2ccccc2)cc1)Cc1cn(C)c2ccc(CNc3ccc(F)cc3)cc12
3,2.08 µM,Cn1cc(CNCCc2ccc(-c3ccccc3)cc2)c2cc(CNc3ccc(F)cc3)ccc21
4,56 µM,CN(Cc1ccc(Oc2ccccc2)cc1)Cc1cn(C)c2ccc(CNc3ccc(F)cc3)cc12

# The next lines start with the compound.
row,Structure (SMILES),IC50
1,CN1CCN(Cc2cn(C)c3ccc(C(=O)Nc4ccc(F)cc4)cc23)CC1,89.2 µM
2,O=C(Nc1ccc(F)cc1)c1ccc2c(ccn2Cc2ccc(-c3ccccc3)cc2)c1,8.36 µM
3,CC(=O)N(CCc1ccc(-c2ccccc2)cc1)Cc1cn(C)c2ccc(C(=O)Nc3ccc(F)cc3)cc12,> 100 µM
4,Cc1ccc(NC(=O)c2ccc3c(c2)c(CN(C)CCc2ccc(-c4ccccc4)cc2)cn3C)cc1,50.3 µM
5,Cn1cc(CN2CCN(Cc3ccc(-c4ccccc4)cc3)CC2)c2cc(C(=O)Nc3ccc(F)cc3)ccc21,37.5 µM
6,CN(CCc1ccccc1)Cc1cn(C)c2ccc(C(=O)Nc3ccc(F)cc3)cc12,47.7 µM

# Tested on: Jurkat
# Assay: Antiproliferative activity against human Jurkat T cells assessed as decrease in cell viability measured after 24 to 72 hrs by MTT assay
# Type: functional, cell-based
# Conditions: not given
row,IC50,Structure (SMILES)
1,79.2 µM,CCNC(=O)c1ccc2c(c1)c(CN(C)CCc1ccc(-c3ccccc3)cc1)cn2C
2,34.4 µM,CN(Cc1ccc(-c2ccccc2)cc1)Cc1cn(C)c2ccc(CNc3ccc(F)cc3)cc12
3,72 µM,Cn1cc(CNCCc2ccc(-c3ccccc3)cc2)c2cc(CNc3ccc(F)cc3)ccc21
4,35.6 µM,CN(Cc1ccc(Oc2ccccc2)cc1)Cc1cn(C)c2ccc(CNc3ccc(F)cc3)cc12

# The next lines start with the compound.
row,Structure (SMILES),IC50
1,CN1CCN(Cc2cn(C)c3ccc(C(=O)Nc4ccc(F)cc4)cc23)CC1,> 100 µM
2,O=C(Nc1ccc(F)cc1)c1ccc2c(ccn2Cc2ccc(-c3ccccc3)cc2)c1,> 100 µM
3,CC(=O)N(CCc1ccc(-c2ccccc2)cc1)Cc1cn(C)c2ccc(C(=O)Nc3ccc(F)cc3)cc12,> 100 µM
4,Cc1ccc(NC(=O)c2ccc3c(c2)c(CN(C)CCc2ccc(-c4ccccc4)cc2)cn3C)cc1,68 µM
5,Cn1cc(CN2CCN(Cc3ccc(-c4ccccc4)cc3)CC2)c2cc(C(=O)Nc3ccc(F)cc3)ccc21,> 100 µM
6,CN(CCc1ccccc1)Cc1cn(C)c2ccc(C(=O)Nc3ccc(F)cc3)cc12,> 100 µM

# Tested on: IEC-6
# Assay: Cytotoxicity against rat IEC-6 cells assessed as reduction in cell viability measured after 24 to 72 hrs by MTT assay
# Type: cell-based
# Conditions: rat, iec-6
row,Structure (SMILES),Activity
1,Cc1ccc(NC(=O)c2ccc3c(c2)c(CN(C)CCc2ccc(-c4ccccc4)cc2)cn3C)cc1,Non-Toxic
